US6737383B1, “Herbicidal oxadiazolidines” (priority 1999, dated 2004)

Tests used:
giant foxtail = test: Test B pre/postemergence giant foxtail; type: in vivo, Setaria faberii
How it was run: (§1)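 Herbicidal effect was estimated by eye on a ten-point control scale after plants spent twelve to sixteen days in a greenhouse following soil or foliar treatment. Foliar sprays targeted plants at one to four leaves; all doses were formulated in a non-phytotoxic solvent with surfactant.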

wild oat = test: Test B pre/postemergence wild oat; type: in vivo, Avena fatua
How it was run: as §1

duck salad = test: Test B flood test duck salad; type: in vivo, Heteranthera limosa
How it was run: (§2)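 Flood test on plants grown to the 2-leaf stage; treated plants kept in greenhouse twelve to sixteen days, then visually rated against controls on a 0 (no effect) to 10 (complete control) scale.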

soybean = test: Test B pre/postemergence soybean; type: in vivo, Glycine max
How it was run: as §1

bamyardgrass = test: Test B flood test barnyardgrass; type: in vivo, Echinochloa crus-galli
How it was run: as §2

velvetleaf = test: Test B pre/postemergence velvetleaf; type: in vivo, Abutilon theophrasti
How it was run: as §1

pigweed = test: Test B pre/postemergence pigweed; type: in vivo, Amaranthus retroflexus
How it was run: as §1

rape = test: Test B pre/postemergence rape; type: in vivo, Brassica napus
How it was run: as §1

wheat = test: Test B pre/postemergence wheat; type: in vivo, Triticum aestivum
How it was run: as §1

rice = test: Test B flood test rice; type: in vivo, Oryza sativa
How it was run: as §2

smallflower flatsedge = test: Test B flood test smallflower flatsedge; type: in vivo, Cyperus difformis
How it was run: as §2

sugar beet = test: Test B pre/postemergence sugar beet; type: in vivo, Beta vulgaris
How it was run: as §1

purple nutsedge = test: Test B pre/postemergence purple nutsedge; type: in vivo, Cyperus rotundus
How it was run: as §1

bedstraw = test: Test B pre/postemergence bedstraw; type: in vivo, Galium aparine
How it was run: as §1

blackgrass = test: Test B pre/postemergence blackgrass; type: in vivo, Alopecurus myosuroides
How it was run: as §1

morningglory = test: Test B pre/postemergence morningglory; type: in vivo, Ipomoea hederacea
How it was run: as §1

[1] = Postemergence, Rate 125 g/ha, scale of 0 to 10 where 0 is no effect and 10 is complete control
[2] = Postemergence, Rate 250 g/ha, scale of 0 to 10, 0 is no effect, 10 is complete control
[3] = Postemergence, Rate 500 g/ha, scale of 0 to 10 where 0 is no effect and 10 is complete control
[4] = Postemergence, Rate 1000 g/ha, scale 0 to 10 (0 no effect, 10 complete control)
[5] = Preemergence, Rate 125 g/ha, scale of 0 to 10 where 0 is no effect and 10 is complete control
[6] = Preemergence, Rate 250 g/ha, scale 0 to 10 (0 no effect, 10 complete control)
[7] = Preemergence, Rate 500 g/ha, scale of 0 to 10 where 0 is no effect and 10 is complete control
[8] = Rate 1000 g/ha, Preemergence, scale 0 to 10 (0 no effect, 10 complete control)
[9] = Pre-emergence, Rate 1000 g/ha, scale 0 to 10 (0 no effect, 10 complete control)
[10] = Rate 125 g/ha, under heading Pre-emergence, flood test species, visual evaluation after twelve to sixteen days
[11] = Rate 250 g/ha, Pre-emergence (flood test species), scale 0 to 10, 0 is no effect, 10 is complete control
[12] = Rate 500 g/ha, Pre-emergence section of Table B, 0 to 10 scale (0 no effect, 10 complete control)

## COC(=O)C(C)n1c(=O)on(C(=O)N(c2ccc(F)cc2)C(C)C)c1=O (stereo not drawn) [Compound 616]
Giant foxtail; [1]
  Plant response rating, Giant foxtail: 3
Giant foxtail; [2]
  Giant foxtail plant response rating: 3
Giant foxtail; [3]
  Plant response rating, Giant foxtail: 6
Giant foxtail; [4]
  Giant foxtail plant response rating: 7
Giant foxtail; [5]
  Giant foxtail plant response rating: 1
Giant foxtail; [6]
  Plant response rating, Giant foxtail: 7
Giant foxtail; [7]
  Plant response rating, Giant foxtail: 5
Giant foxtail; [8]
  Plant response rating, Giant foxtail: 9
Wild oat; [1]
  Plant response rating, Wild oats: 0
Wild oat; [2]
  Wild oats plant response rating: 0
Wild oat; [3]
  Plant response rating, Wild oats: 0
Wild oat; [5]
  Wild oats plant response rating: 0
Wild oat; [6]
  Plant response rating, Wild oats: 0
Wild oat; [7]
  Plant response rating, Wild oats: 2
Wild oat; [8]
  Plant response rating, Wild oats: 10
Duck salad; [9]
  Ducksalad plant response rating: 0
Duck salad; [10]
  Ducksalad plant response rating (0 to 10 scale, 0 is no effect, 10 is complete control): 0
Duck salad; [11]
  Ducksalad plant response rating: 0
Duck salad; [12]
  Ducksalad plant response rating: 0
soybean; [2]
  Soybean plant response rating: 4
soybean; [3]
  Plant response rating, Soybean: 4
soybean; [4]
  Soybean plant response rating: 4
soybean; [5]
  Soybean plant response rating: 0
soybean; [6]
  Plant response rating, Soybean: 0
soybean; [7]
  Plant response rating, Soybean: 0
soybean; [8]
  Plant response rating, Soybean: 5
bamyardgrass; [9]
  Barnyardgrass plant response rating: 0
bamyardgrass; [10]
  Barnyardgrass plant response rating (0 to 10 scale, 0 is no effect, 10 is complete control): 0
bamyardgrass; [11]
  Barnyardgrass plant response rating: 0
bamyardgrass; [12]
  Barnyardgrass plant response rating: 0
velvetleaf; [1]
  Plant response rating, Velvetleaf: 0
velvetleaf; [2]
  Velvetleaf plant response rating: 0
velvetleaf; [3]
  Plant response rating, Velvetleaf: 1
velvetleaf; [4]
  Velvetleaf plant response rating: 1
velvetleaf; [5]
  Velvetleaf plant response rating: 0
velvetleaf; [6]
  Plant response rating, Velvetleaf: 0
velvetleaf; [7]
  Plant response rating, Velvetleaf: 4
velvetleaf; [8]
  Plant response rating, Velvetleaf: 5
pigweed; [1]
  Plant response rating, Redroot pigweed: 0
pigweed; [2]
  Redroot pigweed plant response rating: 0
pigweed; [3]
  Plant response rating, Redroot pigweed: 1
pigweed; [4]
  Redroot pigweed plant response rating: 3
pigweed; [5]
  Redroot pigweed plant response rating: 1
pigweed; [6]
  Plant response rating, Redroot pigweed: 8
pigweed; [7]
  Plant response rating, Redroot pigweed: 10
pigweed; [8]
  Plant response rating, Redroot pigweed: 10
rape; [1]
  Plant response rating, Rape: 0
rape; [2]
  Rape plant response rating: 0
rape; [3]
  Plant response rating, Rape: 0
rape; [4]
  Rape plant response rating: 3
rape; [5]
  Rape plant response rating: 0
rape; [6]
  Plant response rating, Rape: 0
rape; [7]
  Plant response rating, Rape: 3
rape; [8]
  Plant response rating, Rape: 6
wheat; [1]
  Plant response rating, Wheat: 0
wheat; [2]
  Wheat plant response rating: 0
wheat; [3]
  Plant response rating, Wheat: 0
wheat; [4]
  Wheat plant response rating: 0
wheat; [5]
  Wheat plant response rating: 0
wheat; [6]
  Plant response rating, Wheat: 0
wheat; [7]
  Plant response rating, Wheat: 0
wheat; [8]
  Plant response rating, Wheat: 0
rice; [9]
  Rice plant response rating: 0
rice; [10]
  Rice plant response rating (0 to 10 scale, 0 is no effect, 10 is complete control): 0
rice; [11]
  Rice plant response rating: 0
rice; [12]
  Rice plant response rating: 0
Smallflower flatsedge; [9]
  S. Flatsedge plant response rating: 0
Smallflower flatsedge; [10]
  S. Flatsedge plant response rating (0 to 10 scale, 0 is no effect, 10 is complete control): 0
Smallflower flatsedge; [11]
  S. Flatsedge plant response rating: 0
Smallflower flatsedge; [12]
  S. Flatsedge plant response rating: 0
Sugar beet; [1]
  Plant response rating, Sugarbeets: 0
Sugar beet; [2]
  Sugarbeets plant response rating: 0
Sugar beet; [3]
  Plant response rating, Sugarbeets: 2
Sugar beet; [4]
  Sugarbeets plant response rating: 2
Sugar beet; [5]
  Sugarbeets plant response rating: 0
Sugar beet; [6]
  Plant response rating, Sugarbeets: 0
Sugar beet; [7]
  Plant response rating, Sugarbeets: 1
Sugar beet; [8]
  Plant response rating, Sugarbeets: 7
Purple nutsedge; [1]
  Plant response rating, Nutsedge: 0
Purple nutsedge; [2]
  Nutsedge plant response rating: 0
Purple nutsedge; [3]
  Plant response rating, Nutsedge: 0
Purple nutsedge; [6]
  Plant response rating, Nutsedge: 0
Purple nutsedge; [7]
  Plant response rating, Nutsedge: 0
Purple nutsedge; [8]
  Plant response rating, Nutsedge: 0
bedstraw; [1]
  Plant response rating, Bedstraw: 0
bedstraw; [2]
  Bedstraw plant response rating: 0
bedstraw; [5]
  Bedstraw plant response rating: 0
bedstraw; [6]
  Plant response rating, Bedstraw: 0
bedstraw; [7]
  Bedstraw plant response rating: 0
bedstraw; [8]
  Plant response rating, Bedstraw: 4
blackgrass; [1]
  Plant response rating, Blackgrass: 0
blackgrass; [2]
  Blackgrass plant response rating: 0
blackgrass; [3]
  Plant response rating, Blackgrass: 5
blackgrass; [5]
  Blackgrass plant response rating: 0
blackgrass; [6]
  Plant response rating, Blackgrass: 4
blackgrass; [7]
  Blackgrass plant response rating: 6
blackgrass; [8]
  Plant response rating, Blackgrass: 8
morningglory; [1]
  Plant response rating, Morningglory: 0
morningglory; [2]
  Morningglory plant response rating: 4
morningglory; [3]
  Plant response rating, Morningglory: 10
morningglory; [4]
  Morningglory plant response rating: 10
morningglory; [5]
  Morningglory plant response rating: 0
morningglory; [6]
  Plant response rating, Morningglory: 0
morningglory; [7]
  Plant response rating, Morningglory: 0
morningglory; [8]
  Plant response rating, Morningglory: 0
